Data on two molecules can be found in patent US12162857B2, “Antiviral compounds” (priority 2022, dated 2024).

For one test, the system named is HRSV. Particulars: prophylactic use, high risk infants; cited from earlier work.
The subject of a further test is HMPV A2 TN/94-49. Kind of test: HMPV antiviral assay: LLC-MK2 cells, ATP-Lite readout. Particulars: LLC-MK2, 168 h, MOI 0.005, 7 days incubation. In kind it is cell-based. Put shortly: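 LLC-MK2 cells (5,000/well) were infected in suspension with HMPV A2 TN/94-49 at MOI 0.005 in serum-free OptiMEM with 2 μg/mL final TPCK-trypsin, then incubated for 7 days at 37 °C. Compounds were tested in duplicate from 2 μM in 10-point 2.5-fold dilutions. ATP-Lite luminescence, normalised to virus-only and cells-only controls as % cell health, gave EC50 by four-parameter fit.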

Test [1] has as its system Human RSV-A (“Long” strain). Kind of test: RSV-A assay: CPE in Hep-2 cells, ATPlite readout. In kind it is cell-based. The following applies: human respiratory syncytial virus, 120 h, MOI 0.1, 5-day incubation. In general terms: Cellular ATP, detected with luciferase, serves as a proxy for viable cell number.

For Palivizumab, in the test with HRSV, the “effective in reducing hospitalizations” value is listed as 60%.
The term EC50 denotes the concentration giving half of the maximal effect. Higher therefore signals lower potency in that assay. Consider `COc1cc(C(=O)NC[C@@](O)(c2ccccc2)c2cc(C(C)(C)O)c(F)c(-c3ccc(F)c(Cl)c3Cl)n2)cc2cn(C3CC3)nc12` [Example 67], for which the EC50 is less than 1 µM in the test with HMPV A2 TN/94-49 and less than 0.01 µM in test [1].
